Results taken from patent US9006454B2, “Dihydroorotate dehydrogenase inhibitors” (Merck Serono S.A., priority 2009, dated 2015).

Assays:
Jurkat cells = assay: Measurement of cell proliferation (Jurkat cell), XTT assay; type: cell-based; conditions: for inhibition at 1 µM / EC50: Homo sapiens, Jurkat; for inhibition at 1 µM: read-out: % inh Jurkat_cells @ 1 uM (%); for EC50: 72 h, XTT cell viability
Protocol: See also Roehm, N et al [1991] An improved colorimetric assay for cell proliferation and viability utilizing the tetrazolium salt XTT. J. Immunol. Methods 142:257-265.
Culture Jurkat cells in T-25 flasks at a density of 0.2×10^6/ml 2-3 days before the day of experiment set up.
Centrifuge Jurkat T-cell suspension at 1200 rpm for 10 minutes and resuspend cells again in fresh RPMI medium with 10% FBS.
Count the cells and dilute suspension to a density of 2×10^6 cells/ml. Seed 50 μL of this suspension in each well of a 96 well plate (100,000 cells per well). Keep the edges of the plate empty to avoid evaporation.
Serially dilute DMSO stocks of compounds to get different concentrations for an EC50 curve. 50 μL of compound diluted in media (2× concentration required in well) is added to each well. DMSO concentration should be kept constant at 0.25-0.5% for all wells.
Typically, for all compounds with IC50<1 μM, compound concentration can start at 10 μM followed by half log dilutions for a total of 8-10 concentrations. Each concentration has to be tested in triplicate.
Include controls such as cells without compound (with same DMSO concentration as compound wells), and media control
Incubate the 96 well plate in a CO2 incubator at 37° C. for 72 hrs before determining cell viability using XTT assay
XTT assay: to each well, add 50 μL of 1 mg/ml XTT solution with 20 μl of PMS/mL. Read the plates after 2 hours at 465 nm using the spectrophotometer. XTT reading for media without cells is used as background reading.
Calculate % cell viability assuming that the cells without compound are 100% viable.
Plot % cell viability as a function of concentration and determine EC50 by using software such as Graph Pad Prism to fit the curve.

DHODH = DHODH (Homo sapiens (Human), UniProt Q02127); assay: DHODH activity assay (coupled enzyme assay, DCIP reduction, absorbance at 610 nm); type: biochemical; conditions: for inhibition at 10 µM: read-out: inh @ 10 uM hDHODH (%)
Protocol: The DHODH activity assay is a coupled enzyme assay in which oxidation of DHO and subsequent reduction of ubiquinone are stoichiometrically equivalent to the reduction of DCIP ([…]). The reduction of DCIP is accompanied by a loss of absorbance at 610 nm.
Buffer Preparation: 50 mM tris HCl, 150 mM KCl, and pH 8.0, 0.8% triton.
5 μL of Dimethyl sulfoxide or a compound of formula I in DMSO solution was added to the wells of a 96 well plate. Compounds of formula I were measured at 10 μM.
Protein along with buffer was added, so that the total volume including the DMSO was 87 μL. Compound and protein were incubated for half an hour at room temperature after mixing. 5 μL of 20 mM solution of L-Dihydroorotic acid, 5 μL of 2 mM solution of Decylubiquinone and 3 μL of 2 mM solution of 2,6-Dichloroindophenol sodium salt hydrate were added to the above solution (total assay volume 100 μL). The mixture was stirred for 2 min and absorbance was recorded at every 10 min at 610 nanometers.
Percent Inhibition is Calculated as Follows
Positive control contains DMSO, buffer, enzyme and substrates
No Enzyme reaction contains DMSO, buffer and substrates
IC50 determination: • A 2 mM DMSO stock of the compound of formula I to be examined was prepared. ⅓rd dilutions were made as follows:
5 μL of each stock of compound of formula I (solution indicated in column 4 of table) was used for each 100 μL assay. Therefore, 5 μL of the 2 mM stock provided 100 μL of 100 μM solution of compound of formula I, when made up with buffer, protein and substrate. See also: Ulrich et al. (2001) Eur. J. Biochem. 268, 1861-1868.

Sequence of DHODH (Q02127 whole entry): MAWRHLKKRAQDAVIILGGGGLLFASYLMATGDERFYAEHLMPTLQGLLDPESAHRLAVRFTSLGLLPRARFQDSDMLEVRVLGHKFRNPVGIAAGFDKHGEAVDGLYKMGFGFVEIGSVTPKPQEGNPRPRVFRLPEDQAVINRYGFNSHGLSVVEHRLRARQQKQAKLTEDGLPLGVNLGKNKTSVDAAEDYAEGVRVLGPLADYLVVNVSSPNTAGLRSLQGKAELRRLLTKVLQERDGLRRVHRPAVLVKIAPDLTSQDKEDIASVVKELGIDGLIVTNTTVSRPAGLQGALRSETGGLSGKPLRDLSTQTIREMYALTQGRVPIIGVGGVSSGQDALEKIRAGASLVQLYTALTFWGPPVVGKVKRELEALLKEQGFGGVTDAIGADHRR

| Structure (SMILES) | inhibition at 1 µM (Jurkat cells; compound at 1 uM) | IC50 (DHODH) | inhibition at 10 µM (DHODH; compound at 10 uM) | EC50 (Jurkat cells) | % inh Jurkat_cells @ 1 uM (%) (Jurkat cells; compound at 1 uM) | inh @ 10 uM hDHODH (%) (DHODH; compound at 10 uM) |
| --- | --- | --- | --- | --- | --- | --- |
| O=C(O)c1cc(Cl)cc2[nH]c(-c3ccc(-c4ccccc4)cc3F)nc12 [I44] | 64.9% | 659 nM | 97.3% |  |  |  |
| O=C(O)c1cc(Cl)cc2[nH]c(-c3ccc(-c4ccccc4F)cc3)nc12 [I45] | 49.5% | 949 nM | 92.2% |  |  |  |
| COc1cc(-c2ccccc2)ccc1-c1nc2c(C(=O)O)cc(C)cc2[nH]1 [I46] | 57.1% | 1180 nM | 97.7% |  |  |  |
| Cc1cc(C(=O)O)c2nc(-c3ccc(-c4nc5ccccc5s4)cc3)[nH]c2c1 [I47] | 17.3% |  | 40.3% |  |  |  |
| Cc1cc(C(=O)O)c2nc(-c3c(F)cc(-c4ccccc4)cc3F)[nH]c2c1 [I48] | 88.1% | 177 nM | 100% | 393 nM |  |  |
| Cc1cc(C(=O)O)c2nc(-c3cc(-c4ccccc4)cs3)[nH]c2c1 [I49] | 11% |  | 32.4% |  |  |  |
| O=C(O)c1cccc2[nH]c(-c3ccc(-c4ccccc4)nc3)nc12 [I50] | 21% |  | 64.7% |  |  |  |
| O=C(O)c1cc(Cl)cc2c1N=C(c1ccc(-c3ccccc3)cc1)C2 [I51] |  | 2320 nM |  |  | 39.5% | 86.4% |
| Cc1cc(C(=O)O)c2nc(-c3ccc(-c4cccc(F)c4F)cc3)[nH]c2c1 [I52] | 56.7% | 898 nM | 84.4% |  |  |  |
| Cc1cc(C(=O)O)c2nc(-c3ccc(-c4ccccc4)cn3)[nH]c2c1 [I53] | 22.7% | 7070 nM | 59.8% |  |  |  |
| O=C(O)c1cccc2[nH]c(-c3ccc(S(=O)(=O)c4ccccc4)cc3)nc12 [I54] | 8% |  | 26.6% |  |  |  |
| O=C(O)c1cccc2[nH]c(-c3ccc(Nc4ccccc4)cc3)nc12 [I55] | 6.8% | 27100 nM | 33.2% |  |  |  |
| O=C(O)c1cccc2[nH]c(-c3ccc(Oc4c(F)cccc4F)cc3)nc12 [I56] | 38.8% | 1570 nM | 83.2% |  |  |  |
| O=C(O)c1cccc2[nH]c(-c3ccc(-c4ccncc4)cc3)nc12 [I57] | 12.6% |  | 58% |  |  |  |
| O=C(O)c1cc(F)cc2[nH]c(-c3ccc(-c4cccnc4)cc3)nc12 [I58] | 69.8% | 437 nM | 99.7% |  |  |  |
| Cc1cc(C(=O)O)c2nc(-c3ccc(-c4cccnc4)cc3)[nH]c2c1 [I59] | 73.5% | 407 nM | 99.2% | 450 nM |  |  |
| O=C(O)c1cccc2[nH]c(-c3ccc(-c4cccc(F)c4F)cc3)nc12 [I60] | 33.4% |  | 80.4% |  |  |  |
| O=C(O)c1cccc2cc(-c3ccc(-c4ccccc4)cc3)[nH]c12 [I61] | 67.2% | 595 nM | 94.8% | 202 nM |  |  |
| O=C(O)c1cccc2nc(-c3ccc(-n4ccccc4=O)cc3)[nH]c12 [I63] | 1.4% |  | 5.3% |  |  |  |
| Cc1cc(C(=O)O)c2[nH]c(-c3ccc(-n4ccccc4=O)cc3)nc2c1 [I64] | 1.5% |  | 5.7% |  |  |  |
| O=C(O)c1cccc2nc(-c3ccc(-c4c(F)cccc4F)cc3)[nH]c12 [I65] | 43% | 1840 nM | 82% |  |  |  |
| Cc1cc(C(=O)O)c2[nH]c(-c3ccc(Oc4ccccc4)cc3)nc2c1 [I67] | 29.3% | 3410 nM | 74.2% |  |  |  |
| O=C(O)c1cc(F)cc2[nH]c(-c3c(F)cc(-c4ccccc4)cc3F)nc12 [I68] | 78.4% | 276 nM | 97.8% |  |  |  |
| CC(=O)c1cccc2[nH]c(-c3ccc(-c4ccccc4)cc3)nc12 [I69, 1-(2-Biphenyl-4-yl-1H-benzoimidazol-4-yl)-ethanone] | 9.2% |  | 12.5% |  |  |  |
